Earlier results on one substance are cited in patent US6780852B2 (priority 1997, dated 2004).

Regarding Ferric gluconate, the “transient hypotension and flushing, share of exposed patients” value is 1%.
